The test system of one assay is FRDA fibroblasts. Nature of the assay: Erastin cell survival assay (cellular ATP, ViaLight Plus). The settings on record: FRDA fibroblasts (GM04078); compounds 12 h before 4 μM erastin; viability by ATP 48 h after erastin; read-out: Erastin challenge cell survival EC50. In kind it is cell-based. The text has this: (§1) All compounds evaluated for their biological effects were >95% pure. Chemicals employed for the bioassays, including ferrostatin-1 (Fer-1), liproxstatin-1 (Lip-1), RSL3 ((1S,3R)-RSL3), erastin, α-tocopherol, carbonyl cyanide 4-(trifluoromethoxy) phenylhydrazone (FCCP) and galactose, were purchased from Sigma Aldrich. Fluorescent probes, including C11-BODIPY581/591(4,4-difluoro-5-(4-phenyl-1,3-butadienyl)-4-bora-3a,4a-diaza-s-indacene-3-propionic acid), and The Live/Dead® Viability/Cytotoxicity Kit were obtained from Invitrogen (Thermo Fisher Scientific). Luciferase-linked ATPase enzymatic assay (ViaLight Plus proliferation/cytoxicity kit was purchased from Lonza (Walkersville, MD). FRDA lymphocytes (catalogue number GM15850) and FRDA fibroblasts cells (catalogue number GM04078) were obtained from Coriell Cell Repositories (Camden, NJ, USA).
(§2) Lymphocytes were cultured in RPMI-1640 medium (Gibco, Life Technologies, Grand Island, NY) with 15% fetal calf serum, 2 mM glutamine (HyClone, South Logan, UT) and 1% penicillin-streptomycin antibiotic supplement (Cellgro, Manassas, VA). Cells were passaged daily to maintain them in log phase growth and kept at a nominal concentration of 5-10×105 mL. FRDA fibroblasts were cultured in 64% (v/v) Eagle's minimal essential medium (MEM), lacking phenol red with Eagle's balanced salt (EBS) and 25% M199 with EBS (Gibco) supplemented with 10% (v/v) fetal bovine serum albumin (HyClone), 1% penicillin-streptomycin antibiotic mix, 10 μg/mL insulin (Gibco), 10 ng/mL […] (EGF), 10 ng/mL basic fibroblast growth factor (Gibco) and 2 mM glutamine. Cells were grown in 75 cm2 culture flasks and incubated at 37° C. in a humidified atmosphere of 5% CO2 in air. Cells were fed twice weekly and split every third day at a ratio of 1:3. All experiments were conducted with FRDA cells from passages 8-14.
The ability of the test compounds to confer cytoprotection to ferroptosis inducer erastin in FRDA fibroblasts was determined by assessing the depletion of cellular ATP using a commercially available luciferase-linked ATPase enzymatic assay (ViaLight® Plus proliferation/cytotoxicity Kit (Lonza, Walkersville, MD) according to the directions of the manufacturer. Briefly, FRDA fibroblasts (GM04078) were plated in 96-well microtiter plates at a density of 3000 cell/well (50 μL) (Costar, Corning, NY). The plates were incubated at 37° C. for 24 h in an atmosphere having 95% humidity and 5% CO2 to allow attachment of the cells to the culture plates and to allow the cell density reach 60-70% confluency. The next day the test compounds were dissolved in DMSO, diluted to the appropriate concentrations in fresh cell culture media and the cells were then treated with the test compounds (final DMSO concentration was <0.5%). […] Cell viability in each well was determined 48 h after erastin addition by measuring the intracellular ATP content using the ViaLight®-Plus ATP monitoring reagent kit (Lonza, Walkersville, MD) according to the manufacturer's protocol. The ATP concentration was determined by reading luminescence using a luminator (Clarity™ luminescence microplate reader). The percent of viable cells relative to non-treated control was determined for each well. […] Final data output was a calculated EC50 value determined graphically from the dose-response curves using the nonlinear regression curve fit analysis model.

A further assay concerns FRDA lymphocytes. Description: RSL3 challenge lipid peroxidation assay (C11-BODIPY581/591, FACS). The conditions noted are these: Homo sapiens; FRDA lymphocytes (GM15850); compounds overnight, then 2 μM RSL3; C11-BODIPY581/591 flow cytometry; read-out: RSL3 challenge lipid peroxidation inhibition EC50. The assay is classed as cell-based.
Description: as §1, §2
Lipid peroxidation in live cells can be visualized using the oxidation-sensitive fluorescent probe C11-BODIPY581/591. Upon oxidation of this probe, the fluorescence properties shift from a red-emitting form (595 nm) to a green emitting form (520 nm). Changes in fluorescence indirectly reflect the oxidation of unsaturated fatty acids. A quantitative analysis of lipid peroxidation in FRDA lymphocytes, challenged with 2 μM RSL3 in the presence or absence of the test compounds for 2 h was obtained by FACS analysis using the specific dye C11-BODIPY581/591. Briefly, FRDA lymphocytes (5×10^5 cell/mL) were treated with the test compounds (dissolved in DMSO and added to the assay medium at final DMSO concentrations <0.5%) at varying concentrations and incubated at 37° C. overnight in a humidified atmosphere containing 5% CO2 in air. Cells were treated with 2 μM of RSL3 and then incubated for 90 minutes in a humidified atmosphere containing 5% CO2 in air at 37° C. Cells were treated with 2 μM of C11-BODIPY581/591 in phenol red-free RPMI-1640 media and incubated at 37° C. in the dark for 30 min. […] Cells were resuspended in 300 μL of PBS and were analyzed immediately by flow cytometry (C6 Accuri, BD Biosciences, San Jose, CA), to monitor the change in intensity of the C11-BODIPY581/591-green (oxidized) fluorescence signal using 488 nm excitation laser and FL1-H channel 538 nm emission filter. In each analysis, 10,000 events were recorded. […] Final data output was a calculated EC50 value determined graphically from the dose-response curves using the nonlinear regression curve fit analysis model.

We go through five compounds from US12459910B2, “Mitochondrial therapeutic agents” (ARIZONA BOARD OF REGENTS ON BEHALF OF ARIZONA STATE …, priority 2021, dated 2025).

Each structure is given as a SMILES string.

In the case of `CCCCCCCCCCc1cc2nc3ccc(=O)cc-3sc2cc1N(C)C` [Example 1, 8-Decyl-7-(dimethylamino)-3H-phenothiazin-3-One], the EC50 with FRDA fibroblasts amounted to 10 ± 1 nM; in the assay with FRDA lymphocytes it was 9 ± 1 nM.

As to `CCCCCCCCc1cc2nc3ccc(=O)cc-3sc2cc1N(C)C` [Example 2, 7-(Dimethylamino)-8-octyl-3H-phenothiazin-3-one], the EC50 in the assay on FRDA fibroblasts was determined as 15 ± 3 nM; in the assay on FRDA lymphocytes it was 14 ± 1 nM.

Turning to `CCCCCCCCCc1cc2nc3ccc(=O)cc-3sc2cc1N(C)C` [Example 3, 7-(Dimethylamino)-8-nonyl-3H-phenothiazin-3-one], the EC50 with FRDA fibroblasts came out at 11 ± 1 nM; with FRDA lymphocytes, 12 ± 1 nM.

For the compound `CCCCCCCCCCCCc1cc2nc3ccc(=O)cc-3sc2cc1N(C)C` [Example 4, 7-(Dimethylamino)-8-dodecyl-3H-phenothiazin-3-one], the EC50 amounted to 15 ± 1 nM in the assay on FRDA fibroblasts and 16 ± 1 nM in the assay on FRDA lymphocytes.

`CCCCCCCCCCCCCCCCc1cc2nc3ccc(=O)cc-3sc2cc1N(C)C` [Example 5, 7-(Dimethylamino)-8-hexadecyl-3H-phenothiazin-3-one]: the EC50 in the assay with FRDA fibroblasts amounted to 22 ± 2 nM; in the assay on FRDA lymphocytes, 25 ± 3 nM.
